Several values for one entry are separate records, joined by “and”; a condition that tells them apart may be missing. Equal entries are not always repeated. Entries after “also recorded” stand apart in the source; their conditions may differ.
Assays:
rats = settings: intraperitoneal; cited from earlier work
[1] = water soluble antioxidants and chelators, rapidly cleared by kidneys or liver; cited from earlier work
Solubility = format: physicochemical
Text: In fact, the compounds in U.S. Pat. No. 6,586,600 were mostly ineffective at treating environmental contaminations of heavy metal due to their insolubility in water and many organic solvents. The conventional wisdom is that any metal chelator has to be water soluble to be effective is evidenced by the currently known chelators such as dimercapopropane sulfonate (DMPS), dimercaptosuccinic acid (DMSA), ethylenediaminetetraacetic acid (EDTA) and even the natural mammalian heavy metal chelator glutathione. These observations made the use of the compounds questionable for any mammalian based treatment regarding the removal of charged toxic metals like Hg^2+, Pb^2+, and Cd^2+ which are water soluble and would most likely be located in the aqueous aspects of mammalian tissues. Additionally, any compound that is not water soluble nor soluble in most organic solvents would not be expected to pass the intestinal endothelial membrane barrier and enter the blood and tissues of the mammal. Further, the compound(s) would have to cross the cell membrane to be able to interact with and bind the intracellular located heavy metal responsible for the toxic effects. It would also have to be able to cross the blood brain barrier to be effective for any neurotoxic heavy metal effect. […]

blood GSH, GSSG = assay: Effect of daily OSR on blood GSH, GSSG levels and GSH/GSSG ratios; format: in vivo, human; settings: 10 subjects, 200 mg of OSR per day
Text: Effect of daily administration of OSR on key biochemical parameters. […] Also, the major improvement seemed to result from the very significant decrease in oxidized glutathione (GSSG) instead of a total increase in all forms of glutathione. This would be best explained by OSR scavenging hydroxyl free radicals salvaging the GSH by preventing its oxidation to GSSG. This change occurred in 10 of 10 subjects.
All were in reasonable health with no obvious bacterial infections. GSH/GSSG ratios increased in all primarily due to the drop in GSSG levels in all subjects. […] The average tGSH/GSSG ratio almost doubled caused by a near average halving of the GSSG levels.

[2] = Effect of OSR treatment on essential elements; format: in vivo; settings: treatment with OSR
Text: (§1) Also, copper and zinc are primarily found in a water environment (hydrophilic aspects) of the body whereas OSR partitions into the hydrophobic aspects. This separation may play a role in the lack of OSR removing copper and zinc. However, in diseases with excess free copper, iron or zinc, OSR is likely to be able to bind and decrease the toxicity of these metals.

[3] = Toxicity / LD-50 in test animals; format: in vivo
Text: In fact, OSR is so non-toxic that an LD-50 could not be identified and was established as greater than 5 grams per kilogram body weight.

[4] = Affinity for heavy metals; format: binding
Text: as §1

[5] = Kinetic study: plasma half-life, tissue distribution and clearance; format: in vivo
Text: The mitochondria, especially if abnormal or damaged by heavy metals or radiation, are the main producers of the free radicals that cause cellular damage to the membranes, proteins or nucleic acids (DNA, RNA). Therefore, OSR is positioned to intercept these free radicals before they do damage and the ORAC scores show us OSR is exceptional at scavenging these toxic chemicals. Thus, OSR operates as an antioxidant in a more efficient and effective level than antioxidants generally known in the art.
It should also be appreciated that OSR is cleared from all tissues tested by over 90% twenty-four hours after ingestion. Therefore, no toxic build-up of OSR occurs in the mammal.
Preferred dosage forms for oral administration include the isolated compounds in powder form. Such powders may be taken up with a swoop and spread onto food or mixed into drinks for easy consumption without bad taste. The pure compounds may be pre-mixed with certain dietary ingredients such as butter, olive oil, corn oil, albumin, whey or other foods which will help in absorption of the compounds by the mere process of dissolving them. Using OSR dissolved in corn oil, it was determined that it takes two hours post ingestion for the maximum level of OSR to show up in the plasma of all tested animals.

[6] = ORAC (oxygen-radical-absorbance-capacity) score; format: biochemical
Method: As should be appreciated from the following table, OSR has an exceptionally high ORAC (oxygen-radical-absorbance-capacity) score.
The ORAC score is measured by a compound or elixer's ability to intercept reactive oxygen species, free radicals preventing them from oxidizing a water soluble fluorescent vitamin-E derivative. OSR has the ability in the body to protect vitamin-E (a fat soluble vitamin) and other fat soluble natural compounds such as lipids from damage by oxidizing free radicals since it partitions into the hydrophobic areas where they exist and reacts with free radicals more effectively than they do, thereby scavenging the hydroxyl free radicals and preventing them from doing damage. […] OSR is more capable of reacting with these radicals than vitamin-E and, accordingly, OSR should provide even better protection. In fact, OSR should salvage vitamin E and D in vivo.

[7] = tested on: rats injected with mercuric chloride; assay: Protective effects of OSR on rats injected with mercuric chloride; format: in vivo, rat; parameters: key to survival (Alive/Dead): A = Alive; D = Dead; settings: for survival (Alive/Dead): Rat 1-3
Method: Protective effects of OSR on rats injected subcutaneously with mercuric chloride.
Our experiments were designed around this value.
For each of the experiments nine, 5-7 weeks old, rats were chosen. They were divided into three groups and they were fed rat chow and water ad libitum.
The mercuric chloride was dissolved in PBS/DMSO and injected intraperitoneally at time zero.
The compound OSR was dissolved in 0.75 ml DMSO and 0.25 ml PBS. Injection was subcutaneous under the skin covering the stomach. These were done 20 min. after the injection of the mercuric chloride.

[8] = tested on: glutathione-S-transferase (GST); assay: Effect of OSR on Glutathione-S-transferase (GST) levels; format: in vivo, human; settings: for Glutathione-S-transferase (GST) levels: lines = patients 1-10
Text: GST is an enzyme that uses glutathione (GSH) as a substrate to covalently modify certain organic toxins by ‘transferring GSH’ to a P-450 enzyme oxidized site on the toxin. […] GST was non-detectable in all 10 patients at the start of the study and was detectable in all 10 patients at the end of the study. The change in the redox level most likely had something to do with the appearance of this enzyme. It is a common mechanism in cellular regulation that the lowering of a substrate (e.g. glutathione) needed at several locations results in the suppressed expression of the enzyme (e.g. GST) that use this substrate for reactions that are less necessary to support survival. The buildup of GSH most likely induces the expression of GST and this buildup accounts for the induction of new GST synthesis.

[9] = tested on: cysteine, methionine, homocysteine; assay: Effect of OSR on blood sulfur containing amino acid levels; format: in vivo, human; settings: 10 patients, two month period
Text: To determine if OSR changed the level of cysteine, the rate limiting amino acid in glutathione synthesis, the level of all thiol containing amino acids was done for the same 10 patients for a two month period. […] The homocysteine level was high in patient #9, a person diagnosed with Alzheimer's disease, over the two month testing their levels dropped to near normal levels.
The possible exception was the homocysteine levels in patient #9, a person with Alzheimer's disease.

Storage stability = format: physicochemical; settings: sealed plastic test tubes, sixteen months, room temperature
Text: OSR also has excellent stability when stored in sealed plastic test tubes with less than three percent breakdown occurring at sixteen months of storage at room temperature. Most antioxidants break down very rapidly when exposed to air or water but OSR is exceptional in this regards.

For `[Cl][Hg][Cl]` [mercury chloride], the “LD 50” value (rats) is listed as 3.2 mg/kg body weight.
In the case of `N[C@@H](CCC(=O)N[C@@H](CS)C(=O)NCC(=O)O)C(=O)O` [glutathione], the half-life [1] is given as “less than one to two”.
In the case of `Oc1ccc(C=Cc2cc(O)cc(O)c2)cc1` [resveratrol], the half-life [1] is listed as “less than one to two”.
With `O=C(NCCS)c1cccc(C(=O)NCCS)c1` [OSR, N,N′-bis(2-mercaptoethyl)isophthalamide] the lipid solubility (Solubility) was “lipid soluble”, the “GSH levels, result in words” value (blood GSH, GSSG; two months) was “increased slightly in 7 of 10” and the “redox ratio (GSH/GSSG), result in words” value (blood GSH, GSSG; whole blood, OSR taken regularly, approximately 60 days) was “significantly increase; also recorded: dramatically improved”. For the same molecule, the “lowering of essential elements copper, iron and zinc” value [2] was “does not result in a significant lowering”, the LD-50 [3] was “greater than 5 grams per kilogram body weight” and the toxicity ([3]; levels up to 5,000 mg per day) was “without toxicity”. For the same molecule, the “affinity for mercury, lead, arsenic and cadmium” value [4] was “exceptionally high affinity”, the “OSR levels relative to peak values seen at hour 2” value ([5]; 24 hours post-ingestion, OSR dissolved in corn oil) was 4-12% and the “time post ingestion for the maximum level of OSR in plasma” value ([5]; OSR dissolved in corn oil, all tested animals) was “two”. The “blood brain barrier / tissue entry” value ([5]; kinetic study, all tissues tested) was “crosses the blood brain barrier”, the half-life in plasma ([5]; plasma of test animals) was “about six to seven” and the “cleared from all tissues tested” value ([5]; twenty-four hours after ingestion) was “over 90%”. The “ORAC Score” value [6] was 192,400 μmoleTE/100 g, the “survival (Alive/Dead)” value ([7]; 0 hr, mercury chloride 2 mg/kg body weight, OSR 0.5 millimoles/kg subcutaneous 20 min after) was “A” and the “survival (Alive/Dead)” value ([7]; 0 hr, mercury chloride 14 mg/kg body weight, OSR 1 mM/kg body weight subcutaneous 20 min after) was “A”. The “survival (Alive/Dead)” value ([7]; 1 week, mercury chloride 2 mg/kg body weight, OSR 0.5 millimoles/kg subcutaneous 20 min after) was “A”, the “survival (Alive/Dead)” value ([7]; 1 week, mercury chloride 14 mg/kg body weight, OSR 1 mM/kg body weight subcutaneous 20 min after) was “A” and the “survival (Alive/Dead)” value ([7]; 6 hr, mercury chloride 2 mg/kg body weight, OSR 0.5 millimoles/kg subcutaneous 20 min after) was “A”. For the same molecule, the “survival (Alive/Dead)” value ([7]; 6 hr, mercury chloride 14 mg/kg body weight, OSR 1 mM/kg body weight subcutaneous 20 min after) was “A”, the “survival (Alive/Dead)” value ([7]; 12 hr, mercury chloride 2 mg/kg body weight, OSR 0.5 millimoles/kg subcutaneous 20 min after) was “A” and the “survival (Alive/Dead)” value ([7]; 12 hr, mercury chloride 14 mg/kg body weight, OSR 1 mM/kg body weight subcutaneous 20 min after) was “A”. For the same molecule, the “survival (Alive/Dead)” value ([7]; 24 hr, mercury chloride 2 mg/kg body weight, OSR 0.5 millimoles/kg subcutaneous 20 min after) was “A”, the “survival (Alive/Dead)” value ([7]; 24 hr, mercury chloride 14 mg/kg body weight, OSR 1 mM/kg body weight subcutaneous 20 min after) was “A” and the “survival (Alive/Dead)” value ([7]; 48 hr, mercury chloride 2 mg/kg body weight, OSR 0.5 millimoles/kg subcutaneous 20 min after) was “A”. The “survival (Alive/Dead)” value ([7]; 48 hr, mercury chloride 14 mg/kg body weight, OSR 1 mM/kg body weight subcutaneous 20 min after) was “D and A”, the “protection from mercury induced toxic effects (blood in urine and feces, death, weight loss, ataxia)” value ([7]; rats given 0.6 lethal dose of mercury chloride, 10-fold excess of OSR twenty-thirty minutes later) was “protected from mercury induced toxic effects” and the “excretion route of OSR bound mercury” value ([7]; rats given mercury chloride and OSR) was “primarily excreted through the fecal route”. For the same molecule, the protection from death ([7]; rats injected with 1-5 levels (or higher) of lethal doses of mercury chloride, single 10-fold excess of OSR dissolved in DMSO) was “protected from death”, the “glutathione-S-transferase (GST), result in words” value ([8]; 10 patients, after OSR treatment) was “consistently elevated in all 10 patients” and the “Glutathione-S-transferase (GST) levels” value ([8]; time 1 month) was 0.58 ng/mL and 0.46 ng/mL. For the same molecule, the “Glutathione-S-transferase (GST) levels” value ([8]; time 2 months) was 0.53 ng/mL and 0.43 ng/mL and 0.37 ng/mL and 0.32 ng/mL and 0.63 ng/mL and 0.48 ng/mL, the “changes in cysteine, methionine or homocysteine levels, result in words” value [9] was “No significant consistent changes” and the breakdown on storage (Storage stability) was “less than three”.
In the case of `O=C(O)C(S)C(S)C(=O)O` (centres unmarked) [DMSA, dimercaptosuccinic acid], the half-life [1] is listed as “less than one to two”.
In the case of `O=S(=O)(O)CC(S)CS` (centres unmarked) [DMPS, dimercaptopropane sulfonate], the half-life [1] is given as “less than one to two”.

From patent US9907787B2, “Method of supplementing the diet and ameliorating oxidative stress” (priority 2008, dated 2018)
